From the NIST ThermoML archive (doi:10.1021/je800334m)

Assay: excess molar enthalpy (molar enthalpy of mixing); xn = mol fraction of the nth substance listed
Details: Liquid, Flow calorimetry

CN(C)CCO [2-(N,N-dimethylamino)ethanol] + CCO
excess molar enthalpy [kJ/mol]
Details | 298.2 K | 313.2 K | 328.2 K
100 kPa, x1 = 0.0717 | -0.147 | -0.154 | –
100 kPa, x1 = 0.1392 | -0.242 | -0.26 | –
100 kPa, x1 = 0.2028 | – | -0.329 | –
100 kPa, x1 = 0.2034 | – | – | -0.311
100 kPa, x1 = 0.2054 | -0.319 | – | –
100 kPa, x1 = 0.2654 | – | – | -0.357
100 kPa, x1 = 0.2665 | -0.366 | -0.381 | –
100 kPa, x1 = 0.3253 | – | – | -0.385
100 kPa, x1 = 0.3264 | -0.392 | -0.409 | –
100 kPa, x1 = 0.3839 | – | – | -0.399
100 kPa, x1 = 0.3845 | -0.408 | -0.425 | –
100 kPa, x1 = 0.4385 | – | – | -0.403
100 kPa, x1 = 0.4399 | -0.411 | -0.426 | –
100 kPa, x1 = 0.4916 | -0.404 | -0.419 | –
100 kPa, x1 = 0.4924 | – | – | -0.393
100 kPa, x1 = 0.5427 | -0.39 | -0.403 | -0.382
100 kPa, x1 = 0.591 | – | – | -0.358
100 kPa, x1 = 0.5925 | -0.371 | -0.381 | –
100 kPa, x1 = 0.6393 | – | – | -0.334
100 kPa, x1 = 0.6409 | -0.344 | -0.354 | –
100 kPa, x1 = 0.683 | – | -0.325 | –
100 kPa, x1 = 0.6848 | – | – | -0.304
100 kPa, x1 = 0.6874 | -0.312 | – | –
100 kPa, x1 = 0.727 | – | -0.291 | –
100 kPa, x1 = 0.7296 | – | – | -0.272
100 kPa, x1 = 0.7314 | -0.278 | – | –
100 kPa, x1 = 0.7727 | -0.248 | -0.252 | –
100 kPa, x1 = 0.8108 | – | -0.215 | –
100 kPa, x1 = 0.8157 | -0.204 | – | –
100 kPa, x1 = 0.8553 | -0.168 | -0.168 | –
100 kPa, x1 = 0.8911 | -0.13 | -0.129 | –
100 kPa, x1 = 0.9281 | -0.085 | -0.0875 | –
100 kPa, x1 = 0.9663 | -0.0372 | -0.0412 | –
10000 kPa, x1 = 0.0699 | – | -0.155 | –
10000 kPa, x1 = 0.0721 | -0.155 | – | –
10000 kPa, x1 = 0.1399 | -0.257 | -0.265 | –
10000 kPa, x1 = 0.2039 | -0.321 | -0.336 | –
10000 kPa, x1 = 0.2044 | – | – | -0.315
10000 kPa, x1 = 0.265 | – | -0.384 | –
10000 kPa, x1 = 0.2667 | – | – | -0.36
10000 kPa, x1 = 0.2678 | -0.367 | – | –
10000 kPa, x1 = 0.3249 | – | -0.414 | –
10000 kPa, x1 = 0.3267 | – | – | -0.388
10000 kPa, x1 = 0.3279 | -0.4 | – | –
10000 kPa, x1 = 0.3829 | -0.413 | -0.428 | –
10000 kPa, x1 = 0.3835 | – | – | -0.403
10000 kPa, x1 = 0.4381 | -0.417 | -0.43 | -0.404
10000 kPa, x1 = 0.4919 | – | – | -0.395
10000 kPa, x1 = 0.4933 | -0.41 | -0.422 | –
10000 kPa, x1 = 0.5421 | – | – | -0.381
10000 kPa, x1 = 0.5443 | -0.395 | -0.407 | –
10000 kPa, x1 = 0.5902 | – | -0.386 | –
10000 kPa, x1 = 0.5926 | – | – | -0.359
10000 kPa, x1 = 0.5941 | -0.373 | – | –
10000 kPa, x1 = 0.6383 | -0.349 | -0.358 | -0.333
10000 kPa, x1 = 0.6845 | -0.319 | -0.327 | –
10000 kPa, x1 = 0.7283 | -0.286 | -0.293 | –
10000 kPa, x1 = 0.7739 | -0.247 | -0.253 | –
10000 kPa, x1 = 0.8118 | -0.211 | -0.216 | –
10000 kPa, x1 = 0.8511 | -0.171 | -0.176 | –
10000 kPa, x1 = 0.8917 | -0.128 | -0.13 | –
10000 kPa, x1 = 0.9285 | -0.0847 | -0.088 | –
10000 kPa, x1 = 0.9665 | -0.0378 | -0.0414 | –

CN(C)CCO [2-(N,N-dimethylamino)ethanol] + CO
Details | excess molar enthalpy [kJ/mol]
298.2 K, 100 kPa, x1 = 0.0499 | -0.252
298.2 K, 100 kPa, x1 = 0.099 | -0.453
298.2 K, 100 kPa, x1 = 0.1495 | -0.603
298.2 K, 100 kPa, x1 = 0.1981 | -0.719
298.2 K, 100 kPa, x1 = 0.2479 | -0.806
298.2 K, 100 kPa, x1 = 0.2982 | -0.865
298.2 K, 100 kPa, x1 = 0.3481 | -0.896
298.2 K, 100 kPa, x1 = 0.3968 | -0.906
298.2 K, 100 kPa, x1 = 0.4466 | -0.897
298.2 K, 100 kPa, x1 = 0.4972 | -0.867
298.2 K, 100 kPa, x1 = 0.5483 | -0.826
298.2 K, 100 kPa, x1 = 0.5992 | -0.767
298.2 K, 100 kPa, x1 = 0.6494 | -0.701
298.2 K, 100 kPa, x1 = 0.6981 | -0.622
298.2 K, 100 kPa, x1 = 0.7506 | -0.532
298.2 K, 100 kPa, x1 = 0.8007 | -0.438
298.2 K, 100 kPa, x1 = 0.8477 | -0.343
298.2 K, 100 kPa, x1 = 0.8977 | -0.236
298.2 K, 100 kPa, x1 = 0.9512 | -0.113
298.2 K, 10000 kPa, x1 = 0.05 | -0.276
298.2 K, 10000 kPa, x1 = 0.0993 | -0.469
298.2 K, 10000 kPa, x1 = 0.1479 | -0.613
298.2 K, 10000 kPa, x1 = 0.1986 | -0.731
298.2 K, 10000 kPa, x1 = 0.2485 | -0.813
298.2 K, 10000 kPa, x1 = 0.2961 | -0.865
298.2 K, 10000 kPa, x1 = 0.3458 | -0.896
298.2 K, 10000 kPa, x1 = 0.3976 | -0.906
298.2 K, 10000 kPa, x1 = 0.4474 | -0.895
298.2 K, 10000 kPa, x1 = 0.4981 | -0.867
298.2 K, 10000 kPa, x1 = 0.5447 | -0.827
298.2 K, 10000 kPa, x1 = 0.5952 | -0.771
298.2 K, 10000 kPa, x1 = 0.645 | -0.705
298.2 K, 10000 kPa, x1 = 0.6988 | -0.621
298.2 K, 10000 kPa, x1 = 0.7452 | -0.541
298.2 K, 10000 kPa, x1 = 0.7948 | -0.451
298.2 K, 10000 kPa, x1 = 0.8481 | -0.342
298.2 K, 10000 kPa, x1 = 0.898 | -0.235
313.2 K, 100 kPa, x1 = 0.0499 | -0.259
313.2 K, 100 kPa, x1 = 0.099 | -0.457
313.2 K, 100 kPa, x1 = 0.1495 | -0.621
313.2 K, 100 kPa, x1 = 0.1981 | -0.74
313.2 K, 100 kPa, x1 = 0.2479 | -0.823
313.2 K, 100 kPa, x1 = 0.2982 | -0.88
313.2 K, 100 kPa, x1 = 0.3481 | -0.909
313.2 K, 100 kPa, x1 = 0.3968 | -0.917
313.2 K, 100 kPa, x1 = 0.4466 | -0.909
313.2 K, 100 kPa, x1 = 0.4972 | -0.881
313.2 K, 100 kPa, x1 = 0.5483 | -0.834
313.2 K, 100 kPa, x1 = 0.5992 | -0.781
313.2 K, 100 kPa, x1 = 0.6494 | -0.71
313.2 K, 100 kPa, x1 = 0.6981 | -0.632
313.2 K, 100 kPa, x1 = 0.7506 | -0.545
313.2 K, 100 kPa, x1 = 0.8007 | -0.445
313.2 K, 100 kPa, x1 = 0.8477 | -0.348
313.2 K, 100 kPa, x1 = 0.8977 | -0.237
313.2 K, 100 kPa, x1 = 0.9512 | -0.117
313.2 K, 10000 kPa, x1 = 0.0502 | -0.261
313.2 K, 10000 kPa, x1 = 0.0996 | -0.463
313.2 K, 10000 kPa, x1 = 0.1484 | -0.618
313.2 K, 10000 kPa, x1 = 0.1992 | -0.742
313.2 K, 10000 kPa, x1 = 0.2491 | -0.829
313.2 K, 10000 kPa, x1 = 0.2968 | -0.884
313.2 K, 10000 kPa, x1 = 0.3465 | -0.918
313.2 K, 10000 kPa, x1 = 0.3983 | -0.928
313.2 K, 10000 kPa, x1 = 0.4482 | -0.917
313.2 K, 10000 kPa, x1 = 0.4989 | -0.89
313.2 K, 10000 kPa, x1 = 0.5455 | -0.851
313.2 K, 10000 kPa, x1 = 0.596 | -0.795
313.2 K, 10000 kPa, x1 = 0.6457 | -0.727
313.2 K, 10000 kPa, x1 = 0.6995 | -0.64
313.2 K, 10000 kPa, x1 = 0.7458 | -0.558
313.2 K, 10000 kPa, x1 = 0.7953 | -0.464
313.2 K, 10000 kPa, x1 = 0.8485 | -0.354
313.2 K, 10000 kPa, x1 = 0.8983 | -0.242
328.2 K, 100 kPa, x1 = 0.1479 | -0.592
328.2 K, 100 kPa, x1 = 0.1972 | -0.714
328.2 K, 100 kPa, x1 = 0.2469 | -0.803
328.2 K, 100 kPa, x1 = 0.2976 | -0.86
328.2 K, 100 kPa, x1 = 0.3469 | -0.894
328.2 K, 100 kPa, x1 = 0.3974 | -0.903
328.2 K, 100 kPa, x1 = 0.4466 | -0.895
328.2 K, 100 kPa, x1 = 0.4956 | -0.865
328.2 K, 100 kPa, x1 = 0.5465 | -0.822
328.2 K, 100 kPa, x1 = 0.5963 | -0.766
328.2 K, 100 kPa, x1 = 0.6473 | -0.7
328.2 K, 10000 kPa, x1 = 0.1487 | -0.593
328.2 K, 10000 kPa, x1 = 0.1983 | -0.717
328.2 K, 10000 kPa, x1 = 0.2481 | -0.81
328.2 K, 10000 kPa, x1 = 0.2973 | -0.868
328.2 K, 10000 kPa, x1 = 0.3465 | -0.903
328.2 K, 10000 kPa, x1 = 0.397 | -0.911
328.2 K, 10000 kPa, x1 = 0.446 | -0.906
328.2 K, 10000 kPa, x1 = 0.4972 | -0.88
328.2 K, 10000 kPa, x1 = 0.5455 | -0.84
328.2 K, 10000 kPa, x1 = 0.5979 | -0.783
328.2 K, 10000 kPa, x1 = 0.6457 | -0.72
328.2 K, 10000 kPa, x1 = 0.6973 | -0.642
